Measurements: patent publication US9540649B2, “Method for opening tight junctions” (The Provost, Fellows and Scholars of the College of the …, priority 2007, dated 2017)
Entries after “also recorded” stand apart in the source; their conditions may differ.

How the values were obtained:
claudin-5 mRNA = assay: Real-time RT-PCR analysis of claudin-5 mRNA in brain post-injection of siRNA; assay type: in vivo, C57/Bl6 mice
Method: Rapid high pressure, high volume tail vein injections were carried out (Kiang et al., 2005). Wild type C57/Bl6 mice of weight 20-30 g were individually restrained inside a 60-ml volume plastic tube. The protruding tail was warmed for 5 minutes prior to injection under a 60-W lamp and the tail vein clearly visualized by illumination from below. 20 micrograms of targeting siRNA, or non-targeting siRNA made up with PBS to a volume in mls of 10% of the body weight in grams or PBS alone, was injected into the tail vein at a rate of 1 ml/sec using a 26-gauge (26 G 3/8) needle. After 24, 48, 72 hours and 1 week, protein was isolated from total brain tissue by crushing brains to a fine powder in liquid N2 and subsequently using lysis buffer containing 62.5 mM Tris, 2% SDS, 10 mM Dithiothreitol, 10 μl protease inhibitor cocktail/100 ml (Sigma Aldrich, Ireland). The homogenate was centrifuged at 10,000 g for 20 mins @4° C., and the supernatant was removed for claudin-5 analysis.
At the same time points post-delivery of siRNA total RNA was isolated from brains using Trizol (Invitrogen). RNA was then treated with RNase-free DNase (Promega, Madison, Wis., USA) and then chloroform extracted, isopropanol precipitated, washed with 75% RNA grade ethanol and resuspended in 100 μl RNase-free water.
RNA was analyzed by real-time RT-PCR using a Quantitect Sybr Green Kit as outlined by the manufacturer (Qiagen-Xeragon) on a LightCycler (Roche Diagnostics, Lewes, UK) under the following conditions: 50° C. for 20 min; 95° C. for 15 min; 38 cycles of 94° C. for 15 s, 57° C. for 20 s, 72° C. for 10 s.
cDNA fragments were amplified from claudin-5 and β-actin for each RNA sample a minimum of four times. Results were expressed as a percentage of those from the similarly standardized appropriate control experiment. The reciprocal values compared to the non-targeting control siRNA gave percentage suppression of claudin-5 expression. Mean values, standard deviations, and pooled t tests were calculated using GraphPad Prism©. Differences were deemed statistically significant at P<0.05.

BBB = assay: MRI assessment of BBB integrity with contrasting agent Gd-DTPA (742 Da); assay type: in vivo, C57/Bl6 mice
Method: Following injection of siRNA and using appropriate controls, BBB integrity was assessed in vivo via MRI, using a dedicated small rodent Bruker BioSpec 70/30 (i.e. 7 T, 30 cm bore) with an actively shielded USR Magnet. Mice were anaesthetised with isofluorane, and physiologically monitored (ECG, respiration and temperature) and placed on an MRI-compatible support cradle, which has a built-in system for maintaining the animal's body temperature at 37° C. The cradle was then positioned within the MRI scanner. Accurate positioning is ensured by acquiring an initial rapid pilot image, which is then used to ensure the correct geometry is scanned in all subsequent MRI experiments. Upon insertion into the MRI scanner, high resolution anatomical images of the brain were acquired (100 μm in-plane and 500 μm through-plane spatial resolution). BBB integrity was then visualised in high resolution T1 weighted MR images before and after injection of a 0.1 mM/L/kg bolus of Gd-DTPA (Gadolinium diethylene-triamine pentaacetic acid), administered via the tail vein.
Gd-DTPA was injected in the tail vein to assess whether Gd-TPA would permeate across the BBB. Following injection of siRNA and using appropriate controls, BBB integrity to a molecule of 742 Daltons (Gd-DTPA) was assessed via MRI, using a dedicated small rodent Bruker BioSpec 70/30 (i.e. 7 T, 30 cm bore) with an actively shielded USR Magnet. Mice were anaesthetised with isofluorane, and physiologically monitored (ECG, respiration and temperature) and placed on an MRI-compatible support cradle, which has a built-in system for maintaining the animal's body temperature at 37° C. The cradle was then positioned within the MRI scanner. Accurate positioning is ensured by acquiring an initial rapid pilot image, which is then used to ensure the correct geometry is scanned in all subsequent MRI experiments. Upon insertion into the MRI scanner, high resolution anatomical images of the brain were acquired (100 μm in-plane and 500 μm through-plane spatial resolution). BBB integrity was then visualised in high resolution T1 weighted MR images before and after injection of a 0.1 mM/L/kg bolus of Gd-DTPA (Gadolinium diethylene-triamine pentaacetic acid), administered via the tail vein. Following injection of Gd-DTPA, repeated 3 minute T1-weighted scans were performed over a period of 30 minutes, and images shown are representative of the final scans of this 30 minute period. Statistical analysis of all densitometric results of combined regions of the Cerebellum, Hippocampus and Cortex was performed using ANOVA, with significance represented by a P value of ≦0.05, and results are presented both graphically and in a quantitative image depicting the rate of Gd-DTPA deposition within the brain. All MRI scans were performed on 2 mice from each experimental treatment.

claudin-5 = assay: Claudin-5 expression in retina after siRNA injection (Western blot, retinal flatmounts); assay type: in vivo, mice

Substance: claudin-5 siRNA: siRNA, sense CGUUGGAAAUUCUGGGUCUUU (SEQ ID NO: 1), antisense AGACCCAGAAUUUCCAACGUU (SEQ ID NO: 2) (listed as RNA, chemistry not given here)
- claudin-5 mRNA level, RT-PCR, brain (claudin-5 mRNA; 1 week post-injection, vs non-targeting control): not significantly changed
- claudin-5 mRNA levels suppressed with respect to the non-targeting control siRNA (claudin-5 mRNA; 24 hours post-injection): up to 95%
- claudin-5 mRNA level, RT-PCR, brain (claudin-5 mRNA; 24 hours post-injection, vs control groups): significantly decreased
- claudin-5 mRNA level, RT-PCR, brain (claudin-5 mRNA; 24 hours post-injection, vs control groups, listed as siRNA targeting claudin-5): significant decrease
- claudin-5 mRNA level, RT-PCR, brain (claudin-5 mRNA; 48 hours post-injection, vs control groups): showing suppression
- claudin-5 mRNA level, RT-PCR, brain (claudin-5 mRNA; 72 hours post-injection, vs non-targeting control): not significantly changed
- densitometric analysis of MRI contrasting, Cerebellum, Hippocampus and Cortex combined (BBB; 24 hours and 48 hours post injection, vs control groups): significant increase in contrasting
- Gd-DTPA (742 Da) passage across BBB, MRI (BBB; 24 hours post-injection): Gd-DTPA crossed the BBB and was deposited within the brain
- Gd-DTPA (742 Da) passage across BBB, MRI (BBB; 48 hours post-injection): Gd-DTPA crossed the BBB and was deposited within the brain; also recorded: Gd-DTPA crossed the BBB and was deposited in the parenchymal tissue of the brain; also recorded: widespread and intense contrasting throughout the brain; also recorded: extremely large quantities of Gd-DTPA were deposited in the brain
- Gd-DTPA (742 Da) passage across BBB, MRI (BBB; 48 hours post-injection, listed as siRNA targeting claudin-5): enhanced contrasting within the brain
- Gd-DTPA (742 Da) passage across BBB, MRI (BBB; 72 hours or 1 week post-injection): intact barrier with no deposition of Gd-DTPA
- Gd-DTPA (742 Da) passage across BBB, MRI (BBB; 72 hours or 1 week post-injection, listed as siRNA targeting claudin-5): nor was it present; also recorded: no deposition of Gd-DTPA
- claudin-5 expression in retinal flatmounts, immunohistochemistry (claudin-5; 24, 48 and 72 hours post injection, vs non-targeting siRNA): decreased localisation of claudin-5 at the periphery of endothelial cells
- claudin-5 expression in retinal protein lysates, Western blot (claudin-5; 48 hours post injection): decreased expression
